This note sets out measurements from PMC12655351, “Synthesis and Anticancer Activity Evaluation of New 5-((5-Nitrofuran-2-yl)allylidene)-2-thioxo-4-thiazolidinones” (Pharmaceuticals, 2025).

Common to all, as to test: MTT assay
Holding throughout (assay type): cell-based
Background: Tetrazolium dyes change colour on reduction, which living cells bring about.

For one assay, the system named is HCC-1954. The following applies: Homo sapiens, HCC1954; HCC-1954, 24 h of treatment. An outline of the steps:
(§1)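 Cells exposed to compounds at 0.625–40 μM (seven concentrations, triplicate) for 24 h. MTT (5 mg/mL) then added for 2 h at 37 °C, cells lysed in acidic SDS/DMF buffer pH 4.7, absorbance read at 570 nm.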

Another assay concerns RPMI 8866. The following applies: Homo sapiens; RPMI 8866, 24 h of treatment. In short, it runs like this: as §1
A further assay has as its system AGS. Conditions: Homo sapiens, 24 h of treatment. An outline of the steps: as §1
The test system of the next assay is HT-29. Conditions: Homo sapiens; HT-29, 24 h of treatment. In short, it runs like this: as §1
For a further assay, the system named is MCF-7. Conditions: Homo sapiens, MCF7; MCF-7, 24 h of treatment. In short, it runs like this:
as §1

In another assay the test system is DLD-1. The following applies: Homo sapiens; DLD-1, 24 h of treatment. An outline of the steps:
as §1

For a further assay, the system named is K562. The following applies: Homo sapiens; K562, 24 h of treatment. In short, it runs like this:
as §1

The test system of another assay is Jurkat. Conditions: Homo sapiens, 24 h of treatment. In short, it runs like this:
as §1

As a reminder, the IC50 is the concentration that gives 50% inhibition.

The structures appear in SMILES notation.

Take `CC(C(=O)O)N1C(=O)/C(=C/C=C/c2ccc([N+](=O)[O-])o2)SC1=S` (centres unmarked) [2b, 2-((Z)-5-((E)-3-(5-Nitrofuran-2-yl)allylidene)-4-oxo-2-thioxothiazolidin-3-yl)propanoic acid]: the IC50 with HCC-1954 is 12.5 µM; with RPMI 8866, 29 µM; with AGS it was 12.1 µM; in the assay with HT-29, 24.5 µM; in the assay with MCF-7, 11.3 µM; in the assay on DLD-1, 9.98 µM. The IC50 is above 40 µM in the assay with K562 and 4.78 µM in the assay on Jurkat.
